# Results as given in patent US20090099065A1, “Acylated Single Chain Insulin” (Novo Nordisk A/S, priority 2006, published 2009).
# Biological target: human insulin receptor (Homo sapiens, UniProt P06213)
# Assay: Assay (I): insulin receptor binding, SPA microtiterplate antibody capture assay
# Conditions: purified recombinant human insulin receptor - exon 11; A14 Tyr[125I]-human insulin tracer; human insulin = 100%
# Procedure: Insulin Receptor Binding of the Acylated, Single-Chain Insulin
# The affinity of the acylated, single-chain insulins for the human insulin receptor can be determined by a SPA assay (Scintillation Proximity Assay) microtiterplate antibody capture assay. SPA-PVT antibody-binding beads, anti-mouse reagent (Amersham Biosciences, Cat No. PRNQ0017) are mixed with 25 ml of binding buffer (100 mM HEPES pH 7.8; 100 mM sodium chloride, 10 mM MgSO4, 0.025% Tween-20). Reagent mix for a single Packard Optiplate (Packard No. 6005190) is composed of 2.4 μl of a 1:5000 diluted purified recombinant human insulin receptor—exon 11, an amount of a stock solution of A14 Tyr[125I]-human insulin corresponding to 5000 cpm per 100 μl of reagent mix, 12 μl of a 1:1000 dilution of F12 antibody, 3 ml of SPA-beads and binding buffer to a total of 12 ml. A total of 100 μl is then added and a dilution series is made from appropriate samples. To the dilution series is then added 100 μl of reagent mix and the samples are incubated for 16 hours while gently shaken. The phases are then separated by centrifugation for 1 min and the plates counted in a Topcounter. The binding data are fitted using the nonlinear regression algorithm in the GraphPad Prism 2.01 (GraphPad Software, San Diego, Calif.).
# human insulin receptor, sequence (P06213 28-746 isoform P06213-2 limits assumed): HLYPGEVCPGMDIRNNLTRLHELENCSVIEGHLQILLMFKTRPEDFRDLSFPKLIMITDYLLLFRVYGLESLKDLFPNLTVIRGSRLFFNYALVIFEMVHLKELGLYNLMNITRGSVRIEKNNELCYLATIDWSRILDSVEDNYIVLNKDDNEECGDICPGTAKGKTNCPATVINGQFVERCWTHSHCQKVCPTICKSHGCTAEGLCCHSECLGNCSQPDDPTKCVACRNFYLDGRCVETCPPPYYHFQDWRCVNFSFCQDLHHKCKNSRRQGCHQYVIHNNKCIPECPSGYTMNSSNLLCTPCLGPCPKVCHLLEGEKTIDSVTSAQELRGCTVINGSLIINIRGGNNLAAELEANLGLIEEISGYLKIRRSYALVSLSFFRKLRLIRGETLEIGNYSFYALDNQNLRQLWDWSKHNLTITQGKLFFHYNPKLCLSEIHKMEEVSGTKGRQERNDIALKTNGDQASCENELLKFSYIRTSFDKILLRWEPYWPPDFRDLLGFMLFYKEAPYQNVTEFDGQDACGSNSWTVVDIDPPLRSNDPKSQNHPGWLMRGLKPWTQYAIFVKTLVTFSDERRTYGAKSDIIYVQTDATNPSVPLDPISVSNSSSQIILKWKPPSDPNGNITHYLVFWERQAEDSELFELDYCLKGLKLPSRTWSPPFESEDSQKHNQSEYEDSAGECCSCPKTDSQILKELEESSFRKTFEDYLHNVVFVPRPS
# human insulin receptor, sequence (P06213 763-1382 partner limits assumed): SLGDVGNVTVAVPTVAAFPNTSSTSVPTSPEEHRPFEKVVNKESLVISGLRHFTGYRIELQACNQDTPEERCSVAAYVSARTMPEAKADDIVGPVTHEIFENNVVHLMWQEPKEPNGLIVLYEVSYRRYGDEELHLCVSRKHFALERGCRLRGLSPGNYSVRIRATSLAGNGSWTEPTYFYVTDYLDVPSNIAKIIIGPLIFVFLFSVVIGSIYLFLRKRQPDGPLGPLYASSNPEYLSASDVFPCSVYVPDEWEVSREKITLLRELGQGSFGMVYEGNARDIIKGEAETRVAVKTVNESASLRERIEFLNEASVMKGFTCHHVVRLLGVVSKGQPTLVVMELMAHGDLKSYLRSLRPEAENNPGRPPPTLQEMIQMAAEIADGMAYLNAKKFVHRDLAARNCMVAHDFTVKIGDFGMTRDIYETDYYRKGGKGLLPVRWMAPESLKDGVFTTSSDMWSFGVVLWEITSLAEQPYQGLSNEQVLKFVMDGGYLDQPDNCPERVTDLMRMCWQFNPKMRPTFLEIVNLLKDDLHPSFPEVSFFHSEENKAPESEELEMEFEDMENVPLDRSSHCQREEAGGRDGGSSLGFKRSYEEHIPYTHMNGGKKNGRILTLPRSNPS
row,Substance,insulin receptor binding relative to that of human insulin [%]
1,B(1-29)-B29A-VGLSSGQ-A(1-21)-A8K(N(eps)hexadecandioyl-gGlu)-A18Q Human Insulin [Example 6],73
2,B(1-29)-B29A-VGLSSGQ-A(1-21)-A15K(N(eps)-hexadecandioyl-g-L-Glu)-A18Q Human Insulin [Example 9],17.4
3,B(1-29)-B29A-VGLSSGQ-A(1-21)-A18K(N(eps)hexadecandioyl-gGlu) Human Insulin [Example 1],25
4,B(1-29)-B29A-VGLSSGQ-A(1-21)-A18K(N(eps)myristoyl) Human Insulin [Example 3],27
5,"B(1-29)-B29A-VGLSSGQ-A(1-22)-A18Q, A22K(N(eps)hexadecandioyl-gGlu) Human Insulin [Example 4]",44
6,"B(1-29)-B29A-VGLSSGQ-A(1-22)-A18Q, A22K(N(eps)myristoyl) Human Insulin [Example 2]",62
7,"B(1-29)-B29A-VGLSSGQ-A(1-22)-A18Q, A22K(N(eps)octadecandioyl) Human Insulin [Example 5]",24
8,B(1-29)-B29A-VGLSSGQ-A(1-22)-A18Q-A22K((eps)heptadecandioyl-g-Glu) Human Insulin [Example 10],43
9,B(1-29)-B29H-TGLGSGR-A(1-21)-A18K(N-eps-hexadecandioyl-g-L-Glu)-A21 G Human insulin [Example 7],45.7
10,"B(1-29)-B29Q-TGLGSCR-A(1-22)-A18Q, A21 G-A22K(N (eps)hexadecand ioyl-g-LGlu) Human Insulin [Example 8]",112.8

# Biological target: purified recombinant human insulin receptor-exon 11 (human) (UniProt P06213)
# Sequence (P06213 other isoform, or with tags, fused parts or gaps limits assumed, form in doubt): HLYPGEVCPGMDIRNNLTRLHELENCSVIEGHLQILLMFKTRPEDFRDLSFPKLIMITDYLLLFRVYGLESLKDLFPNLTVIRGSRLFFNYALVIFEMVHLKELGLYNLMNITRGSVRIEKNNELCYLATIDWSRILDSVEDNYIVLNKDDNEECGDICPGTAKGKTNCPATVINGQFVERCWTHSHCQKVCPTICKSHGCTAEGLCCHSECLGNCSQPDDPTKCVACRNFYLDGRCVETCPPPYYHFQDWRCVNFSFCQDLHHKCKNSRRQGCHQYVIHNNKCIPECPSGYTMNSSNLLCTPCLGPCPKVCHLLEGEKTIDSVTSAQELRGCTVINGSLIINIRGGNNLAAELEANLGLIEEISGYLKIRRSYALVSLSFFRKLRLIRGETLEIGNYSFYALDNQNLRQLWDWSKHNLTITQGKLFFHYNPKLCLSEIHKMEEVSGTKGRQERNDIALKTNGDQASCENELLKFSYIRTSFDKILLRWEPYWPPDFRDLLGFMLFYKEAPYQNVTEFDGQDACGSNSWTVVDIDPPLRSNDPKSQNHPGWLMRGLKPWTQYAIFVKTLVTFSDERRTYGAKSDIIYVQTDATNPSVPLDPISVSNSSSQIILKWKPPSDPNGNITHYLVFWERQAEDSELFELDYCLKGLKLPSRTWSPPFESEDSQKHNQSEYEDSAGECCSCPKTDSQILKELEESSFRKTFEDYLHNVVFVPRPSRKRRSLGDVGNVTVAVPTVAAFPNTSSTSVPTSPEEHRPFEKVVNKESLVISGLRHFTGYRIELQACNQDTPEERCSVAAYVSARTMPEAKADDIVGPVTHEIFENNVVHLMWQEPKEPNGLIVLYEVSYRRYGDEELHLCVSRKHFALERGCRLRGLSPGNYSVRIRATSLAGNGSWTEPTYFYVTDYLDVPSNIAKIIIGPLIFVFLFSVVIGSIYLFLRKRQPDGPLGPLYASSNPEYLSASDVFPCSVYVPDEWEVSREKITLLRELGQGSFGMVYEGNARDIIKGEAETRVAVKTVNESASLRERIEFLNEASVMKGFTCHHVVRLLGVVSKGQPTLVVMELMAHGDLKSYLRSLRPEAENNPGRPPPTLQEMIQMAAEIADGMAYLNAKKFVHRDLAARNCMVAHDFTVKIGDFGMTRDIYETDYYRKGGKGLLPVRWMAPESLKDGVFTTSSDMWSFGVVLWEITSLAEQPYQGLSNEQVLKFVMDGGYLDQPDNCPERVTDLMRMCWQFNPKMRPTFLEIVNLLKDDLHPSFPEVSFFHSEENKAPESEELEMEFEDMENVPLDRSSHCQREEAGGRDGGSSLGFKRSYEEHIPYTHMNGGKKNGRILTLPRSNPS
# Assay: assay (I): SPA, displacement of A14 Tyr[125I]-human insulin from recombinant human insulin receptor
# Conditions: not given
row,Substance,insulin receptor binding relative to that of human insulin [%]
1,B(1-29)-B29A-VGLSSGQ-A(1-21)-A8K(N(eps)hexadecandioyl-gGlu)-A18Q Human Insulin (from UniProt P01308 25-53; P01308 90-110) (ligand),73
2,B(1-29)-B29A-VGLSSGQ-A(1-21)-A18K(N(eps)myristoyl) Human Insulin (from UniProt P01308 25-53; P01308 90-110) (ligand),27
3,"B(1-29)-B29A-VGLSSGQ-A(1-22)-A18Q, A22K(N(eps)myristoyl) Human Insulin (from UniProt P01308 25-53; P01308 90-110) (ligand)",62
4,"B(1-29)-B29A-VGLSSGQ-A(1-22)-A18Q, A22K(N(eps)octadecandioyl) Human Insulin (from UniProt P01308 25-53; P01308 90-110) (ligand)",24
5,B(1-29)-B29A-VGLSSGQ-A(1-22)-A18Q-A22K((eps)heptadecandioyl-g-Glu) Human Insulin (from UniProt P01308 25-53; P01308 90-110) (ligand),43
6,B(1-29)-B29H-TGLGSGR-A(1-21)-A18K(N-eps-hexadecandioyl-g-L-Glu)-A21 G Human insulin (from UniProt P01308 25-53; P01308 90-110) (ligand),45.7

# Second part, the substance after the results:
row,insulin receptor binding relative to that of human insulin [%],Substance
1,17.4,B(1-29)-B29A-VGLSSGQ-A(1-21)-A15K(N(eps)-hexadecandioyl-g-L-Glu)-A18Q Human Insulin (from UniProt P01308 25-53; P01308 90-110) (ligand)
2,25,B(1-29)-B29A-VGLSSGQ-A(1-21)-A18K(N(eps)hexadecandioyl-gGlu) Human Insulin (from UniProt P01308 25-53; P01308 90-110) (ligand)
3,44,"B(1-29)-B29A-VGLSSGQ-A(1-22)-A18Q, A22K(N(eps)hexadecandioyl-gGlu) Human Insulin (from UniProt P01308 25-53; P01308 90-110) (ligand)"
4,113,"B(1-29)-B29Q-TGLGSCR-A(1-22)-A18Q, A21 G-A22K(N (eps)hexadecand ioyl-g-LGlu) Human Insulin (from UniProt P01308 25-53; P01308 90-110) (ligand)"
